Laboratory results reported in US20240228469A1, “PCSK9 INHIBITORS AND METHODS OF USE THEREOF” (AstraZeneca AB, priority 2022, published 2024).

How the values were obtained:
[1] = target: T1, potassium ion channel hERG (Homo sapiens, UniProt Q12809); assay: Assay 5 hERG assay (patch clamp, CHO cells over-expressing hERG); type: cell-based; conditions: SyncroPatch 384PE, room temperature, geometric mean, read-out: Assay 5 (hERG Hu CHO if EPh CR-Syncro) GMean IC50
T1 construct: expressed in transfected cells; host or cells: Chinese hamster ovary K1 (CHO)
T1 sequence (Q12809 whole entry): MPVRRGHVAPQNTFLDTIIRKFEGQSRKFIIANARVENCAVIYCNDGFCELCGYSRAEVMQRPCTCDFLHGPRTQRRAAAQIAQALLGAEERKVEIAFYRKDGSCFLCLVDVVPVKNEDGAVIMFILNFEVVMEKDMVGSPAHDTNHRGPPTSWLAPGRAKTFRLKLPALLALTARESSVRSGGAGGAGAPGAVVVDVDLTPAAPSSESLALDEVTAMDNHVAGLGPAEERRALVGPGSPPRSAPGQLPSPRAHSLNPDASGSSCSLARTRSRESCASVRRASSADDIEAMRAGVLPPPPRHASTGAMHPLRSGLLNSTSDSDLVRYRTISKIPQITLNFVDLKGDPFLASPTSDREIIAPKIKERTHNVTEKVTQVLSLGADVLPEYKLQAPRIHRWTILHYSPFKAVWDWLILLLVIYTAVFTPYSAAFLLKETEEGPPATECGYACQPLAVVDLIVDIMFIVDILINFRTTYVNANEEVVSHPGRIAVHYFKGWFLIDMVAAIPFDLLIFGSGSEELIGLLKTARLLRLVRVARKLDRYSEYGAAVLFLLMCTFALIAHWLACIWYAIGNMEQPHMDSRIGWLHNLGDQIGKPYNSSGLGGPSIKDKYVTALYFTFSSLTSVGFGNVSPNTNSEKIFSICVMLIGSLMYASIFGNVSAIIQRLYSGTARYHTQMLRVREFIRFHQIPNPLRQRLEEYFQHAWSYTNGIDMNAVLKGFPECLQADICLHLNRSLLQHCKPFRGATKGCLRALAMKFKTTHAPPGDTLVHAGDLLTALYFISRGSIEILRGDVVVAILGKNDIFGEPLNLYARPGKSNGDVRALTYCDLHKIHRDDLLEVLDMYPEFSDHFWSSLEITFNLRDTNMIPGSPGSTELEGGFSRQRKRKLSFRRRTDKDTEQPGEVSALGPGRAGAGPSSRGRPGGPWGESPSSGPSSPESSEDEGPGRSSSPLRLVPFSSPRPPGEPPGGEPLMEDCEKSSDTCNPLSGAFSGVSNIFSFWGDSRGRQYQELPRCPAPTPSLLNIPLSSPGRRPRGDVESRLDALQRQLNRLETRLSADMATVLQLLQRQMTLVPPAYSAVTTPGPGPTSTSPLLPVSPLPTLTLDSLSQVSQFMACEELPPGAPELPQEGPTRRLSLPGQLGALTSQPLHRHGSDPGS
Description: This assay (human Ether-d-go-go-Related Gene) measures activity of the compounds at the potassium ion channel hERG (human Ether-d-go-go-Related Gene).
Experiments were performed on the SyncroPatch 384PE high throughput patch clamp platform at room temperature and medium resistance chips with 4 patch holes per site. Chinese hamster ovary K1 (CHO) cell lines over-expressing the ion channel of choice (hERG) were used in assay-ready format and kept in liquid nitrogen or were used from live culture. Cells were either thawed and diluted in HBSS or were detached from flasks and resuspended in HBSS. HBSS comprised 140 mM NaCl, 4 mM KCl, 10 mM HEPES and 5 mM Glucose (pH7.4). The internal patch clamp solution was KF 120 mM, KCl 20 mM, HEPES 10 mM, EGTA 10 mM, and 25 PM Escin (pH 7.2). After the sealing process was complete, the external solution was exchanged for external patch clamp solution comprising NaCl 80 mM, KCl 4 mM, HEPES 10 mM, CaCl2 2 mM, MgCl2 1 mM, glucose 5 mM, and NMDG 60 mM (pH 7.4). All solutions were stored at room temperature, except Escin, which was stored at 4° C. All test compounds were dispensed in greiner-bio 384 well plates and tested in a 6 point cumulative assay (final DMSO concentration 0.33%). Only wells that passed previously agreed acceptance criteria for this platform were used in this analysis (30 MegaOhm seal resistance, Z prime >0.4 and current size >0.2 nA). […]

[2] = target: GSK3β (Glycogen synthase kinase-3 beta) (Homo sapiens, UniProt P49841); assay: Assay 6 GSK3β assay (ThermoFisher Z-Lyte FRET); type: biochemical; conditions: ATP Conc: 10 μM, geometric mean; read-out: Assay 6 (GSK3β FRET-Z-Lyte Cr) GMean IC50
Sequence of GSK3β (Glycogen synthase kinase-3 beta) (P49841 whole entry): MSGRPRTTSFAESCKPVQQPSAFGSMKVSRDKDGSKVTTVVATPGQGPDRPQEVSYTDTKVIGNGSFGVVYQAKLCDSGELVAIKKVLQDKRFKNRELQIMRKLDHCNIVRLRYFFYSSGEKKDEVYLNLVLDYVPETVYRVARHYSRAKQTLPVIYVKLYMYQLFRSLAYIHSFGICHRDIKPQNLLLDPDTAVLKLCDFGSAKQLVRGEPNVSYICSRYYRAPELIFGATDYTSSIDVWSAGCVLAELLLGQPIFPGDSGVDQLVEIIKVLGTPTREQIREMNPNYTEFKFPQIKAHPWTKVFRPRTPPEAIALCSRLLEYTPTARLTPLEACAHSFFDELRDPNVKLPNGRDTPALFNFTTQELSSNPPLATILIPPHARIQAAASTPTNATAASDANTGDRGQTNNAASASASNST
Description: This assay measures the activity of the compounds at GSK33 (Glycogen synthase kinase-3 beta).
The test compounds were screened in 1% DMSO (final) in the well. For 10 point titrations, 3-fold serial dilutions are conducted from the starting concentration of 10 PM.
Bar-coded Corning, low volume NBS, black 384-well plate • 1. 2.5 μL—4× Test Compound or 100 nL 100× plus 2.4 μL kinase buffer • 2. 5 μL—2× Peptide/Kinase Mixture • 3. 2.5 μL—4×ATP Solution • 4. 30-second plate shake • 5. 60-minute Kinase Reaction incubation at room temperature • 6. 5 μL—Development Reagent Solution • 7. 30-second plate shake • 8. 60-minute Development Reaction incubation at room temperature • 9. Read on fluorescence plate reader and analyse the data
In step 2, the 2×GSK3β (GSK3 beta)/Ser/Thr (Glycogen synthase kinase-3 beta/Serine/Threonine) 09 mixture is prepared in 50 mM HEPES (4-(2-hydroxyethyl)-1-piperazineethanesulfonic acid) pH 7.5, 0.01% BRIJ-35, 10 mM MgCl2, 1 mM EGTA (egtazic acid). The final 10 μL Kinase Reaction consists of 0.22-0.92 ng GSK3β (GSK3 beta) and 2 PM Ser/Thr 09 in 50 mM HEPES pH 7.5, 0.01% BRIJ-35, 10 mM MgCl2, 1 mM EGTA.
In step 3 the ATP Solution is diluted to a 4× working concentration in Kinase Buffer (50 mM HEPES pH 7.5, 0.01% BRIJ-35, 10 mM MgCl2, 1 mM EGTA).
In Step 6 the Development Reagent is diluted 1:512 in Development Buffer (10× Novel PKC Lipid Mix: 2 mg/mL Phosphatidyl Serine, 0.2 mg/mL DAG in 20 mM HEPES, pH 7.4, 0.3% CHAPS).
SelectScreen® Kinase Profiling Service uses XLfit from IDBS. The dose response curve is curve fit to model number 205 (sigmoidal dose-response model).

PCSK9 = PCSK9 (Homo sapiens, UniProt Q8NBP7, G670E/V474I); assay: biochemical
Sequence of PCSK9 (Q8NBP7 with tags, fused parts or gaps V474I/G670E): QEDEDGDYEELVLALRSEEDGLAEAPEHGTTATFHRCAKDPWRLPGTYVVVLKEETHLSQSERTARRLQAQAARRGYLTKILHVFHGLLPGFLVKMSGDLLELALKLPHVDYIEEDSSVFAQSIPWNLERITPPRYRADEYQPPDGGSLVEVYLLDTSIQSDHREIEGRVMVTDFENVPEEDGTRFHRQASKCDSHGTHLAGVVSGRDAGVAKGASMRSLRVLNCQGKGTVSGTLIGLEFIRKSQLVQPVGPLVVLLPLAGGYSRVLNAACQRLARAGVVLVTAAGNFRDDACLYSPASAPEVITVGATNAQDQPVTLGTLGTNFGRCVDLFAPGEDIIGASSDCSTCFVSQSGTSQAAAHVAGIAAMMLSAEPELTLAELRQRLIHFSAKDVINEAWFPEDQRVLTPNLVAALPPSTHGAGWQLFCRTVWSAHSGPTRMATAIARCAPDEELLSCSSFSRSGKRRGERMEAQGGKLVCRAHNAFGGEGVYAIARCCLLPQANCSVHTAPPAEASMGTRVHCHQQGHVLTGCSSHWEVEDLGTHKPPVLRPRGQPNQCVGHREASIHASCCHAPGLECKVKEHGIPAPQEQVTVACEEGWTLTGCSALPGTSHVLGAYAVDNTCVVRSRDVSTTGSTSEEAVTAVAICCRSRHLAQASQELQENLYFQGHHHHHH

| Compound | IC50 [1] [µM] | IC50 [2] [µM] | IC50 (PCSK9) [µM] |
| --- | --- | --- | --- |
| Cc1cnc(NCC(CCO)CNc2ccc(-n3cccc(C)c3=O)cn2)nn1 (racemic) [Example 315, rac-6′-((4-Hydroxy-2-(((6-methyl-1,2,4-triazin-3-yl)amino)methyl)butyl)amino)-3-methyl-2H-[1,3′-bipyridin]-2-one] | > 40.1 | > 10 | 1.29 |
| Cc1ccc(=O)n(-c2ccc(NCC(CCO)CNc3ncc(C)nn3)nc2)c1 (racemic) [Example 316, rac-6′-((4-Hydroxy-2-(((6-methyl-1,2,4-triazin-3-yl)amino)methyl)butyl)amino)-5-methyl-2H-[1,3′-bipyridin]-2-one] | > 40 | – | 7.43 |
| Cc1cnc(NCC(CCO)CNc2ccc(-n3c(=O)ccc4ccccc43)cn2)nn1 (racemic) [Example 318, rac-1-(6-((4-Hydroxy-2-(((6-methyl-1,2,4-triazin-3-yl)amino)methyl)butyl)amino)pyridin-3-yl)quinolin-2(1H)-one] | > 40 | – | 0.284 |
| Cc1cnc(NCC(CCO)CNc2ccc(-n3c(=O)n(C)c4cccnc43)cn2)nn1 (racemic) [Example 319, rac-3-(6-((4-Hydroxy-2-(((6-methyl-1,2,4-triazin-3-yl)amino)methyl)butyl)amino)pyridin-3-yl)-1-methyl-1,3-dihydro-2H-imidazo[4,5-b]pyridin-2-one] | > 40 | – | 0.705 |
| Cc1cnc(NCC(CCO)CNc2ccc(-n3c(=O)ccc4cccnc43)cn2)nn1 (racemic) [Example 320, rac-1-(6-((4-Hydroxy-2-(((6-methyl-1,2,4-triazin-3-yl)amino)methyl)butyl)amino)pyridin-3-yl)-1,8-naphthyridin-2(1H)-one] | > 40 | – | 0.559 |
| Cc1cnc(NCC(CCO)CNc2ccc(-n3c(=O)n(C)c4ccccc43)cn2)nn1 (racemic) [Example 321, rac-1-(6-((4-Hydroxy-2-(((6-methyl-1,2,4-triazin-3-yl)amino)methyl)butyl)amino)pyridin-3-yl)-3-methyl-1,3-dihydro-2H-benzo[d]imidazol-2-one] | > 40 | – | 0.297 |
| CCOC(=O)c1cnc(N[C@H]2CC[C@H](Nc3ccc(-n4ccccc4=O)cn3)C2)nn1 [Compound 10, Ethyl 3-(((1S,3S)-3-((2-oxo-2H-[1,3′-bipyridin]-6′-yl)amino)cyclopentyl)amino)-1,2,4-triazine-6-carboxylate] | > 40 | > 10 | 0.797 |
| Fc1cccc(F)c1-c1ccc(N[C@H]2CC[C@H](Nc3ncc(C4CC4)nn3)C2)nc1 [Example 53] | 3.4 | > 10 | – |
| COc1cccc(F)c1-c1ccc(N[C@H]2CC[C@H](Nc3ncc(C4CC4)nn3)C2)nc1 [Example 54] | 4.3 | > 10 | – |
| O=c1cccnn1-c1cnc(N[C@H]2CC[C@H](Nc3ncc(C4CC4)nn3)C2)cn1 [Example 59, 2-(5-(((1S,3S)-3-((6-Cyclopropyl-1,2,4-triazin-3-yl)amino)cyclopentyl)amino)pyrazin-2-yl)pyridazin-3(2H)-one] | > 40 | > 10 | 0.045 |
| Cn1cccc(-c2ccc(N[C@H]3CC[C@H](Nc4ncc(C5CC5)nn4)C3)nc2)c1=O [Example 60, 6′-(((1S,3S)-3-((6-Cyclopropyl-1,2,4-triazin-3-yl)amino)cyclopentyl)amino)-1-methyl-[3,3′-bipyridin]-2(1H)-one] | 21 | > 10 | 0.0091 |
| N#Cc1ccc(F)c(-c2ccc(N[C@H]3CC[C@H](Nc4ncc(C5CC5)nn4)C3)nc2)n1 [Example 61, 6′-(((1S,3S)-3-((6-Cyclopropyl-1,2,4-triazin-3-yl)amino)cyclopentyl)amino)-3-fluoro-[2,3′-bipyridine]-6-carbonitrile] | 5.6 | > 10 | 0.184 |
| NC(=O)CNC(=O)c1cnc(N[C@H]2CC[C@H](Nc3ccc(-n4ccccc4=O)cn3)C2)nn1 [Example 68, N-(2-Amino-2-oxoethyl)-3-(((1S,3S)-3-((2-oxo-2H-[1,3′-bipyridin]-6′-yl)amino)cyclopentyl)amino)-1,2,4-triazine-6-carboxamide] | > 40 | > 10 | 0.168 |
| Cn1cccc(-c2cnc(N[C@H]3CC[C@H](Nc4ncc(C5CC5)nn4)C3)cn2)c1=O [Example 113, 3-(5-(((1S,3S)-3-((6-Cyclopropyl-1,2,4-triazin-3-yl)amino)cyclopentyl)amino)pyrazin-2-yl)-1-methylpyridin-2(1H)-one] | > 40 | > 10 | 0.041 |
| Cn1cccc(-c2cnc(N[C@H]3CC[C@H](Nc4ncc(C5CC5)nn4)C3)nc2)c1=O [Example 115, 3-(2-(((1S,3S)-3-((6-Cyclopropyl-1,2,4-triazin-3-yl)amino)cyclopentyl)amino)pyrimidin-5-yl)-1-methylpyridin-2(1H)-one] | > 40 | > 10 | 0.017 |
| O=c1cccnn1-c1cnc(N[C@H]2CC[C@H](Nc3ncc(C4CC4)nn3)C2)nc1 [Example 119, 2-(2-(((1S,3S)-3-((6-Cyclopropyl-1,2,4-triazin-3-yl)amino)cyclopentyl)amino)pyrimidin-5-yl)pyridazin-3(2H)-one] | > 40 | > 10 | 0.073 |
| O=c1ccncn1-c1cnc(N[C@H]2CC[C@H](Nc3ncc(C4CC4)nn3)C2)nc1 [Example 120, 2′-(((1S,3S)-3-((6-Cyclopropyl-1,2,4-triazin-3-yl)amino)cyclopentyl)amino)-6H-[1,5′-bipyrimidin]-6-one] | > 40.1 | > 10 | 0.143 |
| CN(CCO)C(=O)c1cnc(N[C@H]2CC[C@H](Nc3ccc(-n4ccccc4=O)cn3)C2)nn1 [Example 151, N-(2-Hydroxyethyl)-N-methyl-3-(((1S,3S)-3-((2-oxo-2H-[1,3′-bipyridin]-6′-yl)amino)cyclopentyl)amino)-1,2,4-triazine-6-carboxamide] | > 40.1 | > 10 | 2.25 |
| C#CCN(C)C(=O)c1cnc(N[C@H]2CC[C@H](Nc3ccc(-n4ccccc4=O)cn3)C2)nn1 [Example 152, N-Methyl-3-(((1S,3S)-3-((2-oxo-2H-[1,3′-bipyridin]-6′-yl)amino)cyclopentyl)amino)-N-(prop-2-yn-1-yl)-1,2,4-triazine-6-carboxamide] | > 40.1 | > 10 | 0.244 |
| COc1c(C(=O)O)ccc(F)c1-c1ccc(N[C@H]2CC[C@H](Nc3ncc(C4CC4)nn3)C2)nc1 [Example 167, 3-(6-(((1S,3S)-3-((6-Cyclopropyl-1,2,4-triazin-3-yl)amino)cyclopentyl)amino)pyridin-3-yl)-4-fluoro-2-methoxybenzoic acid] | > 40.1 | > 10 | – |
| COc1c(C#N)ccc(F)c1-c1ccc(N[C@H]2CC[C@H](Nc3ncc(C4CC4)nn3)C2)nc1 [Example 168, 3-(6-(((1S,3S)-3-((6-Cyclopropyl-1,2,4-triazin-3-yl)amino)cyclopentyl)amino)pyridin-3-yl)-4-fluoro-2-methoxybenzonitrile] | 3.1 | > 10 | – |
| COc1c(-c2nnn[nH]2)ccc(F)c1-c1ccc(N[C@H]2CC[C@H](Nc3ncc(C4CC4)nn3)C2)nc1 [Example 169, (1S,3S)—N^1-(6-Cyclopropyl-1,2,4-triazin-3-yl)-N^3-(5-(6-fluoro-2-methoxy-3-(1H-tetrazol-5-yl)phenyl)pyridin-2-yl)cyclopentane-1,3-diamine] | > 40.1 | 0.31 | 0.027 |
